For data set [1], the target named is T1, Dual specificity protein kinase TTK (Homo sapiens, UniProt P33981).
T1 sequence (P33981 whole entry): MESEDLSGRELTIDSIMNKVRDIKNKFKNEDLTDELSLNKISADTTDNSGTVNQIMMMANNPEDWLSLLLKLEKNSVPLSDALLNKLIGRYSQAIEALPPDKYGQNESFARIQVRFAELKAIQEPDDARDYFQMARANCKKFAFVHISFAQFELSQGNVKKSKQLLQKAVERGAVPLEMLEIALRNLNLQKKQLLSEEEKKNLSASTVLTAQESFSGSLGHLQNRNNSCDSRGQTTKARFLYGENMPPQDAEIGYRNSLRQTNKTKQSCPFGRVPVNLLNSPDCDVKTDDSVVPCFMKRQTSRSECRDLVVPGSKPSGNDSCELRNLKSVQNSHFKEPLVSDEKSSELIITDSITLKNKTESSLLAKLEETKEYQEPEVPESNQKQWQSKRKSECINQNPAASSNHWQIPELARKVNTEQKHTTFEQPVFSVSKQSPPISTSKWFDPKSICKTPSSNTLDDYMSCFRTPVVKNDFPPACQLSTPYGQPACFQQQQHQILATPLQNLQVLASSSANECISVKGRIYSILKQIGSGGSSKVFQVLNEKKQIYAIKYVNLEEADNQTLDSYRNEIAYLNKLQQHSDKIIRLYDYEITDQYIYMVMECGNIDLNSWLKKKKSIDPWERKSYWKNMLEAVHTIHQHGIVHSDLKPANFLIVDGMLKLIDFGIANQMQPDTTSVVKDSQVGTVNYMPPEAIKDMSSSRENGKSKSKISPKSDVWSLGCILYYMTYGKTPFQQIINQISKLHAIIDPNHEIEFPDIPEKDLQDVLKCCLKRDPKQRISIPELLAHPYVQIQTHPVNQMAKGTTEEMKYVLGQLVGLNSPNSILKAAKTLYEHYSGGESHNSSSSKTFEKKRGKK
Description: Inhibition of full length human Mps1 using fluorescence-labeled H236 peptide as substrate after 60 to 90 mins in presence of ATP by fluorescence assay based Cheng-Prusoff equation analysis.

The target of a further data set is T2, Aurora kinase A (Homo sapiens, UniProt O14965).
T2 sequence (O14965 whole entry): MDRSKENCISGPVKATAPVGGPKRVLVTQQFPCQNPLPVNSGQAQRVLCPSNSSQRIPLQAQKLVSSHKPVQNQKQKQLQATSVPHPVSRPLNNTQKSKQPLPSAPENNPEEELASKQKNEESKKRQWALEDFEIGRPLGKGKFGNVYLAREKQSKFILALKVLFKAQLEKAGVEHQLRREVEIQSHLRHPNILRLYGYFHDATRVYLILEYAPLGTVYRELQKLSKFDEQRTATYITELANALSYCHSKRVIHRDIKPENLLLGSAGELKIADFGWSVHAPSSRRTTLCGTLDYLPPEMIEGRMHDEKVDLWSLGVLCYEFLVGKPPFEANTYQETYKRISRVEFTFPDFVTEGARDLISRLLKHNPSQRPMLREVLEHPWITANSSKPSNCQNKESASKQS
Description: Inhibition of full length N-terminal His-tagged Aurora A (unknown origin) using fluorescence-labeled FL-Peptide 21 as substrate after 60 mins in presence of ATP by fluorescence assay based Cheng-Prusoff equation analysis.

Data set [2] concerns the target Aurora kinase B/Inner centromere protein (Homo sapiens, UniProt Q96GD4). Description: Inhibition of human full length N-terminal GST-tagged Aurora B (1 to 344 end residues)/His-tagged INCENP (803 to 918 end residues) expressed in baculovirus expression system using fluorescence-labeled FL-Peptide 21 as substrate after 60 mins in presence of ATP by fluorescence assay based Cheng-Prusoff equation analysis.

Data set [3] is described as follows: Solubility of the compound. It counts as physicochemical.

Sequence of Aurora kinase B/Inner centromere protein (Q96GD4 whole entry): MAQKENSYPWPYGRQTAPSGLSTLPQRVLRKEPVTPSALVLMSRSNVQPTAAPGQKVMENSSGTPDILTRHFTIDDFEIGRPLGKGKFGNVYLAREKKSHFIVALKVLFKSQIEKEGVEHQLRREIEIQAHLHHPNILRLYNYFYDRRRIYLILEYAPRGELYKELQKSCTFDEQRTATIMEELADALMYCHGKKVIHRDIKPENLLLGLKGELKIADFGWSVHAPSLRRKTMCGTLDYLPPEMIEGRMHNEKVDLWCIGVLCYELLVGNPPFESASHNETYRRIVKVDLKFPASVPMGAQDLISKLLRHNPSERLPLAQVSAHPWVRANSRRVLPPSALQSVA
Sequence of Aurora kinase B/Inner centromere protein (Q9NQS7 whole entry, further chain): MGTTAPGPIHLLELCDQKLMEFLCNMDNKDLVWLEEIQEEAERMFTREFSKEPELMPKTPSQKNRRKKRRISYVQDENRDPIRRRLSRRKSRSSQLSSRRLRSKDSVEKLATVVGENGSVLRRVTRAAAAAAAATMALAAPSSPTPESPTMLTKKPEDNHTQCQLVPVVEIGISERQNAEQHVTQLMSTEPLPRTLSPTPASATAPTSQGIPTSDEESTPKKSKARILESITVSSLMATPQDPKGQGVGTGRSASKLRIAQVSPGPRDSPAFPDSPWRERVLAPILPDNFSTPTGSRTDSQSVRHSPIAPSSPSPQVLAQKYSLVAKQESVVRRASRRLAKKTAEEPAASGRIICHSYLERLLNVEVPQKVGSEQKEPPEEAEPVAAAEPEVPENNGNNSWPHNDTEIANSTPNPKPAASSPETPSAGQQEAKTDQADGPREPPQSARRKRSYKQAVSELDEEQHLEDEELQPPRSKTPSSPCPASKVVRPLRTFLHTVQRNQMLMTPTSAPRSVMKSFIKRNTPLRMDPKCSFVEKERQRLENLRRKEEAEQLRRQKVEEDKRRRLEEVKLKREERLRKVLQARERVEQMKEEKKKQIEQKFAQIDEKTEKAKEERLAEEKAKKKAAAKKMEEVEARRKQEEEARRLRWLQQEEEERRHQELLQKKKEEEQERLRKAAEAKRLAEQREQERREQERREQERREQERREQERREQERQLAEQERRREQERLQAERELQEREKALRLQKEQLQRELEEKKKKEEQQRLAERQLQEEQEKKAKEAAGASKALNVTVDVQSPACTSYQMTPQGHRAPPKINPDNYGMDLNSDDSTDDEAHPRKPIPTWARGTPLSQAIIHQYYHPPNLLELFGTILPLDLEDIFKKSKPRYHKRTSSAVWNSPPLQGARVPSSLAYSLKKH

As for `Cn1cc(-c2ccncc2)cc(N)c1=O`, the Ki in data set [1] was found to be 236 µM; on Aurora kinase A it was 99.5 µM; in data set [2], 103 µM.
For `O=C(Nc1cc(-c2ccnc(NC3CC3)n2)c[nH]c1=O)c1ccccc1`, the solubility result in data set [3] is listed as “Insoluble”.
Consider `CN(C)Cc1ccc(-c2c[nH]c(=O)c(N)c2)cc1`, for which the inhibition constant (Ki) in data set [1] is 367 µM; on Aurora kinase A, > 100 µM; in data set [2] it was 12.9 µM.
With `O=C(Nc1cc(-c2ccncc2)c[nH]c1=O)c1ccccc1`, the solubility result in data set [3] is on record as “Insoluble”.
Take `CN1CCN(c2ccc(C(=O)Nc3cc(-c4ccncc4)c[nH]c3=O)cc2)CC1`: the solubility entry in data set [3] is recorded as “Insoluble”.

The values are drawn from ChEMBL document CHEMBL4251747 (Bioorg Med Chem, 2018).
